Experimental data taken from ChEMBL document CHEMBL5543151, “Rational Design of a Novel Class of Human ClpP Agonists through a Ring-Opening Strategy with Enhanced Antileukemia Activity” (J Med Chem, 2024).

Columns and labels:
[1] = target: ATP-dependent Clp protease proteolytic subunit, mitochondrial (Homo sapiens, UniProt Q16740); assay: Agonist activity at human Casein lysing protease P (HsClpP) assessed as increase in peptidase activity using fluorescent peptide AC-WLA-AMC as substrate measured after 2 hrs by […]
MV4-11 [2] = assay: Anti-leukemia activity against human MV4-11 cells assessed as decrease in cell proliferation incubated for 72 hrs by CCK-8 assay; type: functional, cell-based; details: MV4-11, 72 h
MV4-11 [3] = assay: Potency index, ratio of ONC201 IC50 to test compound IC50 for anti-leukemia activity against human MV4-11 cells assessed as decrease in cell proliferation incubated for 72 hrs by CCK-8 assay; type: functional

Sequence of ATP-dependent Clp protease proteolytic subunit, mitochondrial (Q16740 whole entry): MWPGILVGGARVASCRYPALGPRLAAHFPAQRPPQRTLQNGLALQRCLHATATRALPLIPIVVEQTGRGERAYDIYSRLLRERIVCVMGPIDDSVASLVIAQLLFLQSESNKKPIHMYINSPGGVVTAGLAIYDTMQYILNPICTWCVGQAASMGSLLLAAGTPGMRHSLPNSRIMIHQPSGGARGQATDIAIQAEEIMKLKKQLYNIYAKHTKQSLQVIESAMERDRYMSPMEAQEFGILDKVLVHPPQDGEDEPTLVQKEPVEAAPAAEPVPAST

SMILES	EC50 [1]	IC50 (MV4-11 [2])	Ratio IC50 (MV4-11 [3])
O=c1nc(NCc2ccccc2)[nH]c2c1CN(Cc1ccccc1F)CC2	> 10000 nM	> 10000 nM	–
O=c1nc(NCc2cccc(Cl)c2)[nH]c2c1CN(Cc1ccccc1)CC2	> 10000 nM	1880 nM	–
O=c1nc(NCc2ccc(C(F)(F)F)cc2)[nH]c2c1CN(Cc1ccccc1)CC2	2100 nM	1200 nM	–
O=c1nc(NCc2ccc(C(F)(F)F)cc2)[nH]c2c1CN(Cc1cc(F)cc(F)c1)CC2	> 10000 nM	> 10000 nM	–
Cc1ccccc1CNc1nc(=O)c2c([nH]1)CCN(Cc1cccc(C#N)c1)C2	> 10000 nM	> 10000 nM	–
Cc1ccc(CN2CCc3[nH]c(NCc4ccccc4)nc(=O)c3C2)cc1	> 10000 nM	> 10000 nM	–
O=c1nc(NCc2ccccc2Br)[nH]c2c1CN(Cc1ccccc1)CC2	> 10000 nM	> 10000 nM	–
O=c1nc(NCc2ccc3c(c2)OCO3)[nH]c2c1CN(Cc1cc(F)cc(F)c1)CC2	> 10000 nM	> 10000 nM	–
CS(=O)(=O)c1ccc(CN2CCc3[nH]c(NCc4ccccc4)nc(=O)c3C2)cc1	> 10000 nM	> 10000 nM	–
Cc1cccc(CN2CCc3[nH]c(NCc4ccccc4)nc(=O)c3C2)c1	2250 nM	2400 nM	–
N#Cc1ccccc1CN1CCc2[nH]c(NCc3ccccc3)nc(=O)c2C1	> 10000 nM	> 10000 nM	–
O=c1nc(NCc2ccc3c(c2)OCO3)[nH]c2c1CN(Cc1ccc(Cl)c(Cl)c1)CC2	> 10000 nM	> 10000 nM	–
O=c1nc(NCC2CC2)[nH]c2c1CN(Cc1ccccc1)CC2	> 10000 nM	> 10000 nM	–
CCNc1nc(=O)c2c([nH]1)CCN(Cc1ccccc1)C2	> 10000 nM	> 10000 nM	–
O=c1nc(NCc2ccccc2)[nH]c2c1CN(CC1CC1)CC2	> 10000 nM	> 10000 nM	–
O=c1nc(NCc2ccccc2)[nH]c2c1CN(CCc1ccccc1)CC2	> 10000 nM	> 10000 nM	–
O=c1nc(NCc2ccc3ccccc3c2)[nH]c2c1CN(Cc1ccccc1)CC2	2250 nM	2400 nM	–
O=c1nc(NCc2cccc(Br)c2)[nH]c2c1CN(Cc1ccccc1)CC2	> 10000 nM	> 10000 nM	–
O=c1nc(NCc2ccccc2)[nH]c2c1CN(Cc1ccc(F)cc1)CC2	> 10000 nM	> 10000 nM	–

SMILES	EC50 [1]	IC50 (MV4-11 [2])	Ratio IC50 (MV4-11 [3])
O=c1nc(NCc2cccnc2)[nH]c2c1CN(Cc1ccccc1)CC2	> 10000 nM	> 10000 nM	–
COc1ccccc1CNc1nc(=O)c2c([nH]1)CCN(Cc1ccccc1)C2	> 10000 nM	> 10000 nM	–
O=c1[nH]c(NCCc2ccccc2)nc2c1CN(Cc1ccccc1)CC2	> 10000 nM	> 10000 nM	–
O=c1nc(NCc2cnccn2)[nH]c2c1CN(Cc1ccccc1)CC2	> 10000 nM	> 10000 nM	–
N#Cc1cccc(CN2CCc3[nH]c(NCc4cccc(F)c4)nc(=O)c3C2)c1	> 10000 nM	> 10000 nM	–
O=c1nc(NCc2ccccc2)[nH]c2c1CN(Cc1cccc(F)c1)CC2	2020 nM	830 nM	–
CCN1CCc2[nH]c(NCc3ccccc3)nc(=O)c2C1	> 10000 nM	> 10000 nM	–
N#Cc1cccc(CN2CCc3[nH]c(NCc4ccc(C(F)(F)F)cc4)nc(=O)c3C2)c1	> 10000 nM	> 10000 nM	–
Cc1cccc(CNc2nc(=O)c3c([nH]2)CCN(Cc2ccccc2)C3)c1	> 10000 nM	1630 nM	–
O=c1nc(NCc2ccccc2)[nH]c2c1CN(Cc1ccc(F)c(F)c1)CC2	2100 nM	1200 nM	–
O=c1nc(NCc2ccccc2Cl)[nH]c2c1CN(Cc1ccccc1)CC2	> 10000 nM	> 10000 nM	–
COc1cccc(CNc2nc(=O)c3c([nH]2)CCN(Cc2ccccc2)C3)c1	> 10000 nM	> 10000 nM	–
Cc1ccccc1CNc1nc(=O)c2c([nH]1)CCN(Cc1cc(F)cc(F)c1)C2	> 10000 nM	> 10000 nM	–
COc1cccc(CN2CCc3[nH]c(NCc4ccccc4)nc(=O)c3C2)c1	> 10000 nM	1680 nM	–
Cc1ccccc1CN1CCc2[nH]c(NCc3ccccc3)nc(=O)c2C1	> 10000 nM	> 10000 nM	–
O=c1nc(NCC2CCCCC2)[nH]c2c1CN(Cc1ccccc1)CC2	> 10000 nM	> 10000 nM	–
O=c1nc(NCc2ccc(C(F)(F)F)cc2)[nH]c2c1CN(Cc1ccc(Cl)c(Cl)c1)CC2	> 10000 nM	> 10000 nM	–
O=c1nc(NCc2cccc(F)c2)[nH]c2c1CN(Cc1ccccc1)CC2	> 10000 nM	> 10000 nM	–
COc1ccc(CNc2nc(=O)c3c([nH]2)CCN(Cc2ccccc2)C3)cc1	2020 nM	830 nM	–

Stronger by EC50 [1], values ahead:

EC50 [1]	IC50 (MV4-11 [2])	SMILES	Ratio IC50 (MV4-11 [3])
1950 nM	930 nM	O=c1nc(NCc2ccc(Br)cc2)[nH]c2c1CN(Cc1ccccc1)CC2	–
1950 nM	1690 nM	O=c1nc(NCc2ccc(Cl)cc2)[nH]c2c1CN(Cc1ccccc1)CC2	–
1920 nM	350 nM	Cc1ccccc1CN1CCn2c1nc(=O)c1c2CCN(Cc2ccccc2)C1	–
1410 nM	480 nM	O=c1nc(NCc2ccc(F)c(F)c2)[nH]c2c1CN(Cc1ccccc1)CC2	–
1350 nM	930 nM	O=c1nc(NCc2ccccc2F)[nH]c2c1CN(Cc1ccccc1)CC2	–
1350 nM	1030 nM	O=c1nc(NCc2ccccc2)[nH]c2c1CN(Cc1ccccc1Cl)CC2	–
1340 nM	> 10000 nM	O=c1nc(NCc2ccccc2)[nH]c2c1CN(Cc1ccccc1)CC2	–
1220 nM	1510 nM	Cc1ccccc1CNc1nc(=O)c2c([nH]1)CCN(Cc1ccccc1)C2	–
1210 nM	970 nM	O=c1nc(NCc2ccccc2)[nH]c2c1CN(Cc1ccc(Cl)cc1)CC2	–
1110 nM	1610 nM	Cc1ccc(CNc2nc(=O)c3c([nH]2)CCN(Cc2ccccc2)C3)cc1	–
1090 nM	930 nM	O=c1nc(NCc2ccccc2)[nH]c2c1CN(Cc1cccc(Cl)c1)CC2	–
1000 nM	360 nM	O=c1nc(NCc2ccccc2)[nH]c2c1CN(Cc1ccc(Cl)c(Cl)c1)CC2	–
1000 nM	360 nM	O=c1nc(NCc2ccc(F)cc2)[nH]c2c1CN(Cc1ccccc1)CC2	–
950 nM	900 nM	O=c1nc(NCc2ccccc2)[nH]c2c1CN(Cc1cc(F)cc(F)c1)CC2	–
870 nM	30 nM	N#Cc1cccc(CN2CCc3[nH]c(NCc4ccc(F)c(F)c4)nc(=O)c3C2)c1	20
820 nM	60 nM	N#Cc1cccc(CN2CCc3[nH]c(NCc4ccc(Cl)c(Cl)c4)nc(=O)c3C2)c1	–
610 nM	450 nM	O=c1nc(NCc2ccc(Cl)c(Cl)c2)[nH]c2c1CN(Cc1ccccc1)CC2	–
610 nM	450 nM	N#Cc1cccc(CN2CCc3[nH]c(NCc4ccccc4)nc(=O)c3C2)c1	–
520 nM	2900 nM	O=c1nc(NCc2ccc3c(c2)OCO3)[nH]c2c1CN(Cc1ccccc1)CC2	–
510 nM	30 nM	O=c1nc(NCc2ccc(F)c(F)c2)[nH]c2c1CN(Cc1cc(F)cc(F)c1)CC2	20
